From PMC3255569 (Tuberculosis (Edinburgh, Scotland), 2009)
Structures can show the parent of a compound that is named as a salt.

Tests used:
M. tuberculosis H37Rv [1] = settings: cited from earlier work
M. tuberculosis H37Rv [2] = format: cell-based; settings: Mycobacterium tuberculosis; for MIC: read-out: approximate MIC of control drug
M. tuberculosis H37Rv [3] = test: M. tuberculosis H37Rv single-dose primary screen; format: cell-based, Mycobacterium tuberculosis; settings: 10 μg/mL

O=C1C(O)=C([C@H]2CC[C@H](c3ccc(Cl)cc3)CC2)C(=O)c2ccccc21 [Atovaquone]
activity against M. tuberculosis (in words) (M. tuberculosis H37Rv [1]; Prestwick Library data): modest activity

NCC[C@H](O)C(=O)N[C@@H]1C[C@H](N)[C@@H](O[C@H]2O[C@H](CN)[C@@H](O)[C@H](O)[C@H]2O)[C@H](O)[C@H]1O[C@H]1O[C@H](CO)[C@@H](O)[C@H](N)[C@H]1O [amikacin, Amikacin sulfate]
MIC (M. tuberculosis H37Rv [2]): ~0.13 µg/mL
IC50 (M. tuberculosis H37Rv [2]; run over the course of a five month period): 0.09 ± 0.02 µg/mL

Cc1cccc(Nc2nc(-c3ccccc3)cs2)n1 [deaza analog of 1a, 4-phenyl-[2-(6-methyl-2-pyridyl)amino]thiazole]
% Inhibition, single-dose screen (M. tuberculosis H37Rv [3]): 22%

CC[C@@H](CO)NCCN[C@@H](CC)CO [ethambutol]
MIC (M. tuberculosis H37Rv [2]): ~0.5 µg/mL

CCc1cc(C(N)=S)ccn1 [ethionamide, 2-ethylthioisonicotinamide]
TB IC90 (M. tuberculosis H37Rv [1]; in the TAACF screens): > 100 µg/mL
